Experimental data reported in patent US20080153917A1, “Sigma Receptor Ligands” (UCB PHARMA, S.A., priority 2004, published 2008).
Counter-ions that a name gives are not always drawn.

How the values were obtained:
[1] = tested on: MK801-induced short term/working memory deficits; experiment: spontaneous alternation task (Y-shaped maze), short term/working memory; type: in vivo; conditions: male mice, 8 minutes in maze; normal mice 65-70 %
Source text: The effect of claimed compounds has been evaluated in an animal model of short term/working memory, namely the spontaneous alternation task. The test system consisted of a symmetrical Y-shaped maze. […] Claimed compounds were able to prevent this deficit after systemic administration.

| SMILES | melting point [°C] | % spontaneous alternation [1] |
| --- | --- | --- |
| O=C(NCCCN1CCOCC1)C(c1ccccc1)C1CCCC1 (centres unmarked) (as salt: HCl) [Compound 32, 2-cyclopentyl-N-[3-(4-morpholinyl)propyl]-2-phenylacetamide] | 145 | – |
| C[C@]12N[C@H](Cc3ccccc31)c1ccccc12 [MK801] | – | decreased percentage of spontaneous alternation |
| O=C(C(c1ccccc1)C1CCCC1)N1CCC(N2CCOCC2)CC1 (centres unmarked) (as salt: Na) [Compound 36, 4-{1-[cyclopentyl(phenyl)acetyl]-4-piperidinyl}morpholine] | 111.8 | – |
| CCN(CC)CCNC(=O)C(c1ccccc1)C1CCCC1 (single isomer, unassigned; (+)) (as salt: HCl) [Compound 50, (+)2-cyclopentyl-N-[2-(diethylamino)ethyl]-2-phenylacetamide] | 144 | – |
| CCN(CC)C1CCN(C(=O)C(c2ccccc2)C2CCCC2)CC1 (centres unmarked) (as salt: HCl) [Compound 37, N-{1-[cyclopentyl(phenyl)acetyl]-4-piperidinyl}-N,N-diethylamine] | 79 | – |
| O=C(NCCCN1CCN(Cc2c(F)cccc2Cl)CC1)[C@@H]1C[C@H]1c1ccccc1 (relative stereo) (as salt: HCl) [Compound 5, Trans-N-{3-[4-(2-chloro-6-fluorobenzyl)-1-piperazinyl]propyl}-2-phenylcyclopropanecarboxamide] | 145 | – |
| O=C(NCCN1CCN(C(=O)c2c(F)cccc2Cl)CC1)[C@@H]1C[C@H]1c1ccccc1 (relative stereo) (as salt: HCl) [Compound 9, Trans-N-{2-[4-(2-chloro-6-fluorobenzoyl)-1-piperazinyl]ethyl}-2-phenylcyclopropanecarboxamide] | 122 | – |
| NCCNC(=O)C(c1ccccc1)C1CCCC1 (centres unmarked) (as salt: HCl) [Compound 22, N-(2-aminoethyl)-2-cyclopentyl-2-phenylacetamide] | 290 | – |
| CC(C)N1CCN(C2CCN(C(=O)C(c3ccccc3)C3CCCC3)CC2)CC1 (centres unmarked) (as salt: Na) [Compound 38, 1-{1-[cyclopentyl(phenyl)acetyl]-4-piperidinyl}-4-isopropylpiperazine] | 109.6 | – |
| CCNCCNC(=O)C(c1ccccc1)C1CCCC1 (centres unmarked) (as salt: HCl) [Compound 18, 2-cyclopentyl-N-[2-(ethylamino)ethyl]-2-phenylacetamide] | 131 | – |
| CCN(CC)CCNC(=O)C(c1ccccc1)C1CCCC1 (centres unmarked) (as salt: HCl) [Compound 15, 2-cyclopentyl-N-[2-(diethylamino)ethyl]-2-phenylacetamide] | 129 | – |
| CC1CCCCN1CCCNC(=O)C(c1ccccc1)C1CCCC1 (centres unmarked) (as salt: HCl) [Compound 14, 2-cyclopentyl-N-[3-(2-methyl-1-piperidinyl)propyl]-2-phenylacetamide] | 69 | – |
| CCN(CC)CCNC(=O)C(c1ccc(F)cc1)C1CCCC1 (centres unmarked) (as salt: HCl) [Compound 21, 2-cyclopentyl-N-[2-(diethylamino)ethyl]-2-(4-fluorophenyl)acetamide] | 45 | – |
| O=C(C(c1ccccc1)C1CCCC1)N1CCC(N2CCCCC2)CC1 (centres unmarked) (as salt: HCl) [Compound 24, 1′-[cyclopentyl(phenyl)acetyl]-1,4′-bipiperidine] | 112 | – |
| O=C(C(c1ccc(Cl)c(Cl)c1)C1CCCC1)N1CCC(N2CCCCC2)CC1 (centres unmarked) (as salt: HCl) [Compound 25, 1′-[cyclopentyl(3,4-dichlorophenyl)acetyl]-1,4′-bipiperidine] | 230 | – |
| O=C(NCCN1CCN(Cc2ccc(Cl)c(Cl)c2)CC1)[C@@H]1C[C@H]1c1ccccc1 (relative stereo) (as salt: HCl) [Compound 10, Trans-N-{2-[4-(3,4-dichlorobenzyl)-1-piperazinyl]ethyl}-2-phenylcyclopropanecarboxamide] | 145 | – |
| CN(C)[C@H]1CCN(C(=O)C(c2ccccc2)C2CCCC2)C1 (stereo partly drawn) (as salt: Na) [Compound 42, (3S)-1-[cyclopentyl(phenyl)acetyl]-N,N-dimethyl-3-pyrrolidinamine] | 68 | – |
| CCOC(=O)C1CCN(C2CCN(C(=O)C(c3ccccc3)C3CCCC3)CC2)CC1 (centres unmarked) (as salt: HCl) [Compound 40, ethyl 1′-[cyclopentyl(phenyl)acetyl]-1,4′-bipiperidine-4-carboxylate] | 88 | – |
| O=C(NCCN1CCN(Cc2ccccc2)CC1)[C@@H]1C[C@H]1c1ccccc1 (relative stereo) (as salt: HCl) [Compound 7, Trans-N-[2-(4-benzyl-1-piperazinyl)ethyl]-2-phenylcyclopropanecarboxamide] | 195 | – |
| O=C(C(c1ccc(Cl)cc1)C1CCCC1)N1CCC(N2CCCCC2)CC1 (centres unmarked) (as salt: HCl) [Compound 27, 1′-[(4-chlorophenyl)(cyclopentyl)acetyl]-1,4′-bipiperidine] | 105 | – |
| CCN(CC)CCNC(=O)C(c1ccccc1)C1CCCC1 (single isomer, unassigned; (-)) (as salt: HCl) [Compound 51, (−)2-cyclopentyl-N-[2-(diethylamino)ethyl]-2-phenylacetamide] | 146 | – |
| O=C(NCCCN1CCN(Cc2c(F)cccc2Cl)CC1)C(c1ccccc1)C1CCCC1 (centres unmarked) (as salt: HCl) [Compound 34, N-{3-[4-(2-chloro-6-fluorobenzyl)-1-piperazinyl]propyl}-2-cyclopentyl-2-phenylacetamide] | 148 | – |
| O=C(C(c1ccccc1)C1CCCC1)N1CCC(N2CCC(O)CC2)CC1 (centres unmarked) (as salt: HCl) [Compound 41, 1′-[cyclopentyl(phenyl)acetyl]-1,4′-bipiperidin-4-ol] | 90 | – |
